Laboratory results from publication PMC7601413, “Protein Disulphide Isomerase A1 Is Involved in the Regulation of Breast Cancer Cell Adhesion and Transmigration via Lung Microvascular Endothelial Cells” (Cancers, 2020).

How the values were obtained:
[1] = biological target: T1, PDIA1 (protein disulphide isomerase A1) (Homo sapiens, UniProt P07237); assay: insulin reduction turbidimetric assay with recombinant enzyme; assay type: biochemical; conditions: read-out: Enzymatic Activity, % of Initial / PDIA1
T1 construct: gene P4HB; recombinant, full length, 18-508aa, His-tag, E. coli

PDIA3 = biological target: T2, PDIA3 (Homo sapiens, UniProt P30101); assay: as above; assay type: biochemical; conditions: read-out: Enzymatic Activity, % of Initial / PDIA3
T2 construct: recombinant, 25-505aa, His-tag, E. coli
T2 sequence (P30101 25-505): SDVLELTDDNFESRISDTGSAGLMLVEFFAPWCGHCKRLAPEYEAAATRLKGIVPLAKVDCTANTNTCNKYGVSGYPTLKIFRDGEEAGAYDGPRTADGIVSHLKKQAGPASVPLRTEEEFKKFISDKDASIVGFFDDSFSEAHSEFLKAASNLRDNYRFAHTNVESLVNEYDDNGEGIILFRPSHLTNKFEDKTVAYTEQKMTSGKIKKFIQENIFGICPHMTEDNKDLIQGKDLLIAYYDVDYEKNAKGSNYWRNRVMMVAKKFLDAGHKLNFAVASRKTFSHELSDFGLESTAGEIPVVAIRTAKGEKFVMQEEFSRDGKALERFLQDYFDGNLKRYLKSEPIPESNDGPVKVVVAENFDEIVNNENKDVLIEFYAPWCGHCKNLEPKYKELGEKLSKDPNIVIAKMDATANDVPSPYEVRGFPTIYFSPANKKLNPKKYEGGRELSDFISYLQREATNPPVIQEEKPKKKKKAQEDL

T1 sequence (P07237 18-508): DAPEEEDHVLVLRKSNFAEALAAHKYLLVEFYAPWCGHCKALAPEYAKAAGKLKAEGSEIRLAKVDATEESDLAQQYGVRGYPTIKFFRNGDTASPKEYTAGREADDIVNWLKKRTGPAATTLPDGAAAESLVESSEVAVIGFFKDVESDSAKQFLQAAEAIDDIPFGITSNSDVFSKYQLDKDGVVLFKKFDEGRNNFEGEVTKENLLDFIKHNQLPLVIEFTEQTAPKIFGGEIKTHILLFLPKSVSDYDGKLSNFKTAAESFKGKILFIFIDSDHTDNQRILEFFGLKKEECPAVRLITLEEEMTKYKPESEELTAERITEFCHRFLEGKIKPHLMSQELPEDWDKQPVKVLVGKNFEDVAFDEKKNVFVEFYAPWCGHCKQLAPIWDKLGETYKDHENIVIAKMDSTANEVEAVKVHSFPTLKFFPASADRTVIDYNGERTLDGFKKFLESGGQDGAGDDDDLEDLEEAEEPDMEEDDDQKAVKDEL

bepristat 2a
IC50 [1]: 2.1 µM
IC50 (PDIA3): 127 µM
